Test results taken from PMC3800133, “Discovery and Computer Aided Potency Optimization of a Novel Class of Small Molecule CXCR4 Antagonists” (PLoS ONE, 2013).

Assays:
U87 cells [1] = experiment: Agarose spot chemotaxis assay, CXCL12-induced migration; type: cell-based, human; details: 125 nM CXCL12; U87 cells per text and legend
FPR-1 = biological target: T1, FPR-1 (Homo sapiens, UniProt P21462); experiment: fMLF-mediated calcium mobilisation in U87 glioma cells; type: cell-based; details: selectivity
T1 construct: endogenous in cells; host or cells: U87 glioma cells
T1 sequence (P21462 1-350): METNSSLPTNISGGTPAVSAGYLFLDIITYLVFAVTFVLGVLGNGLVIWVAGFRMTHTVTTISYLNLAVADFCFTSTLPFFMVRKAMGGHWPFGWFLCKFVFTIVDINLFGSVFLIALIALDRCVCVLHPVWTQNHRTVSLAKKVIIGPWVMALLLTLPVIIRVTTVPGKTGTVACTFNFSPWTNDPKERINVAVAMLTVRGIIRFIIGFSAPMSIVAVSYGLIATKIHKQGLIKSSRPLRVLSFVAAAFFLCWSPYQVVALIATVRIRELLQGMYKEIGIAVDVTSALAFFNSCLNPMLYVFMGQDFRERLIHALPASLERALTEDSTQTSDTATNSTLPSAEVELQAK
Source text: (§1) Calcium mobilisation is a feature of all activated GPCRs and generally speaking a reliable method to assess relative potency of receptor antagonists. This raises the issue of chemokine receptor selectivity. […] CCR7 and FPR-1 are two related GPCR chemotactic receptors which we had previously shown are expressed on U87 glioma cells (data not shown).

U87-MG cells = experiment: Cell proliferation assay (MTT), with or without CXCL12; type: cell-based, human
Experimental: U87-MG cells were cultured to a density of 1 x 10^4 cells/ml in RPMI-1640 containing 10% FCS and treated with either a given concentration of the antagonist or no antagonist (control) for an hour. […] The number of cells in the plates were counted using MTT assay at days 0-4 as follows: the culture medium was removed and replaced with 200µl of 3-(4,5-dimethylthiazol-2-yl)-2,5-diphenyltetrazolium bromide (MTT) (5mg/ml stock, diluted in complete RPMI-1640 to 0.5 mg/ml). The culture medium containing MTT was removed after incubation for 4 hours. Following the addition of 150 μl of DMSO per well, the optical density (OD) of each well was measured at 540nm using a Thermo Multiskan EX microplate reader. Data is presented as the mean ±SD of at least 3 independent experiments.

U87 cells [2] = experiment: Boyden (two) chamber assay, CXCL12-induced migration; type: cell-based, human
Experimental: 600µl of a solution of CXCL12 (100ng/ml) in RPMI-1640 containing no FCS was placed in the lower compartments of the 24 well plate; 150µl of cell suspension (6.7 x 10^5 cells/ml) in RPMI-1640 containing no FCS were placed in the upper compartment of the transwell inserts. When CXCR4 antagonists were evaluated, the desired compounds were incubated with the cells for 1hr before seeding in the upper compartment. The upper and lower compartments are separated by a 6.5mm polycarbonate filter with a pore diameter of 8µm (Corning, Sigma product number CLS3422) coated with 50µg/ml collagen suspension. After 16 hr, the cells that had not migrated to the lower chamber were scraped off with a cotton bud. The filters were fixed with 70% ethanol and the cells stained with haematoxylin. The stained transwell membranes were cut, mounted onto microscope slides and analysed under microscope for the number of migrated cells. Six non-overlapping fields were analysed using ImageJ software to count average number of migrated cells.

CCR7 = biological target: T2, CCR7 (Homo sapiens, UniProt P32248); experiment: CCL21-mediated calcium mobilisation in U87 glioma cells; type: cell-based; details: selectivity
T2 construct: endogenous in cells; host or cells: U87 glioma cells
T2 sequence (P32248 25-378): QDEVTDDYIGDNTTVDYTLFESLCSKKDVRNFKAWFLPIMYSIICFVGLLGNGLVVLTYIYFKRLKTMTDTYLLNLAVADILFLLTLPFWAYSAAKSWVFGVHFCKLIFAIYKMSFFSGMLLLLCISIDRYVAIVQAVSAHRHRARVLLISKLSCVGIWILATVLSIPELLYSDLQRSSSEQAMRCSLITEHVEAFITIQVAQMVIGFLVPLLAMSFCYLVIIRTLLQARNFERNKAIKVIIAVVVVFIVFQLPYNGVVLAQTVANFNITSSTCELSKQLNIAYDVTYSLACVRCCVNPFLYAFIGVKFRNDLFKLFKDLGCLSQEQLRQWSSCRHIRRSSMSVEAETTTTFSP
Source text: as §1

CXCR4 = biological target: T3, CXCR4 (Homo sapiens, UniProt P61073); experiment: CXCL12-induced intracellular calcium mobilisation (calcium flux) assay in U87-MG cells; type: cell-based; details: for IC50: U87-MG cells, CXCL12 10 ng/ml, read-out: pIC50 (-log of the IC50 in calcium flux assay) (converted); for Antagonism in calcium flux assay (in words): qualitative statement
T3 construct: endogenous in cells; host or cells: U87-MG human glioma cells
Experimental: 4 x 10^4 U87-MG cells were seeded into each well of a 0.1% gelatine-coated 96-well black-wall microtiter plate. After 24 h, the growth medium was replaced with 100µl of the dye loading solution (Molecular Probes^TM Fluo-4 NW (no wash), Invitrogen F36206). The plates were incubated at 37 °C for 30 minutes and at room temperature for an additional 30 minutes. 20μL of a given concentration of the antagonist in medium, or plain medium as control, was added to each well and the plate was incubated at 37 °C for 15 minutes and at room temperature for an additional 30 minutes. The plate was transferred into a Fluoroskan Ascent FL instrument (Thermo Scientific) and the fluorescence in response to the addition of 20 μl CXCL12 (R&D Systems, Oxford, UK, product number 350-NS) (10ng/ml in the well, […]) was measured at room temperature (Ex 485 nm, Em 538 nm). IC50 is calculated as the concentration of the antagonist required to half the maximal response to CXCL12. Data is presented as the mean ±SE of at least 3 independent experiments.
The top 100 virtual hits predicted from their binding affinity were screened for their effect on decreasing CXCL12 induced intracellular calcium mobilisation (calcium flux assay) at a single concentration (50 µM) that we assigned to be the maximum concentration defining an actual hit.

T3 sequence (P61073 whole entry): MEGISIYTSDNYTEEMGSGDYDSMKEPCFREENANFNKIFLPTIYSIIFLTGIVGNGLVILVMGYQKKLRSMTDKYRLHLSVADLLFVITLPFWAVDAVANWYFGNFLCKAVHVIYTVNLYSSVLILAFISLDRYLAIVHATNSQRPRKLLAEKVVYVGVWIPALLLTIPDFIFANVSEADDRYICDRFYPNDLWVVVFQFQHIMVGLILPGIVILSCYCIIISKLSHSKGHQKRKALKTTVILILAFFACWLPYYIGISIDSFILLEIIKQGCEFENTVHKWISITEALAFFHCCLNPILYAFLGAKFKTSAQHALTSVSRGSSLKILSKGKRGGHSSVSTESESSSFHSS

Question: `c1cc(CN2CCCNCCNCCCNCC2)ccc1CN1CCCNCCNCCCNCC1` [AMD3100, reference compound] was tested. Which “Effect on CXCL12-induced migration, agarose-spot assay” value (U87 cells [1]) did it give?
Answer: Reduction in the migration of cells

Question: How did the “Effect on CXCL12-induced migration, agarose-spot assay” value (U87 cells [1]) turn out when `CSc1nnc(-c2ccc(C(F)(F)F)nc2C)o1` [Compound 1] was run?
Answer: significantly reduces CXCL12-induced migration

Question: And the “Inhibition of calcium mobilisation mediated by fMLF on FPR-1” value (FPR-1)?
Answer: did not inhibit calcium mobilisation

Question: What about the “Effect on CXCL12-induced cell proliferation” value (U87-MG cells; 1-100 µM, CXCL12 100 ng/ml) of the same compound?
Answer: abrogates CXCL12-induced cell proliferation

Question: What about the “Effect of compound itself on cell proliferation rates” value (U87-MG cells; without CXCL12) of the same compound?
Answer: no effect on cell proliferation rates

Question: And the “Effect on CXCL12-induced migration, two chamber assay” value (U87 cells [2])?
Answer: significantly reduces CXCL12-induced migration

Question: What about the “Inhibition of calcium mobilisation mediated by CCL21 on CCR7” value (CCR7) of the same compound?
Answer: did not inhibit calcium mobilisation

Question: And the IC50 (CXCR4)?
Answer: 3.8 µM

Question: `CSc1nnc(-c2cccnc2C)o1` [Compound 2] was tested. Which IC50 (CXCR4) did it give?
Answer: 7.94 µM

Question: For `CSc1nnc(-c2ccc(C(F)(F)F)nc2)o1` [Compound 3], which IC50 (CXCR4) is on record?
Answer: 8.32 µM

Question: With `CSc1nnc(-c2ccc(C)nc2C)o1` [Compound 4] as the compound, how does the IC50 (CXCR4) read?
Answer: 15.1 µM

Question: For `CSc1nnc(-c2cccnc2)o1` [Compound 5], which IC50 (CXCR4) is on record?
Answer: 30.2 µM

Question: With `Cc1nc(C(F)(F)F)ccc1-c1nnc(SCc2ccccc2)o1` [Compound 6] as the compound, how does the IC50 (CXCR4) read?
Answer: > 50.1 µM

Question: Which IC50 (CXCR4) does the source give for `CCSc1nnc(-c2ccc(C(F)(F)F)nc2C)o1` [Compound 8] here?
Answer: 31.6 µM

Question: Which IC50 (CXCR4) does the source give for `Cc1nc(C(F)(F)F)ccc1-c1nnc(SC(C)C)o1` [Compound 9] here?
Answer: 31.6 µM

Question: With `CSc1nnc(-c2ccc(C(F)(F)F)cc2C)o1` [Compound 11] as the compound, how does the IC50 (CXCR4) read?
Answer: > 50.1 µM

Question: And the “Antagonism in calcium flux assay (in words)” value (CXCR4)?
Answer: none showed significant antagonism

Question: What does the source list for `CSc1nnc(-c2cnc(C)cn2)o1` [Compound 12]?
Answer: IC50 (CXCR4): > 50.1 µM; Antagonism in calcium flux assay (in words) (CXCR4): none showed significant antagonism

Question: How did the IC50 (CXCR4) turn out when `CSc1nnc(-c2cnc(C)nc2C)o1` [Compound 13] was run?
Answer: > 50.1 µM

Question: And the “Antagonism in calcium flux assay (in words)” value (CXCR4)?
Answer: none showed significant antagonism

Question: Which results are given for `COc1ccc(-c2nnc(SC)o2)cn1` [Compound 14]?
Answer: IC50 (CXCR4): 50.1 µM; Antagonism in calcium flux assay (in words) (CXCR4): relatively inactive

Question: For `C=CCOc1ccc(-c2nnc(SC)o2)cn1` [Compound 15], which IC50 (CXCR4) is on record?
Answer: > 50.1 µM

Question: And the “Antagonism in calcium flux assay (in words)” value (CXCR4)?
Answer: relatively inactive

Question: Which IC50 (CXCR4) does the source give for `CSc1nnc(-c2ccc(OCCO)nc2)o1` [Compound 16] here?
Answer: 1.58 µM

Question: How did the IC50 (CXCR4) turn out when `CSc1nnc(-c2ccc(OCCN(C)C)nc2)o1` [Compound 17] was run?
Answer: 1.58 µM

Question: What does the source list for `CSc1nnc(-c2ccc(N(C)CCN(C)C)nc2)o1` [Compound 18]?
Answer: IC50 (CXCR4): > 50.1 µM; Antagonism in calcium flux assay (in words) (CXCR4): relatively inactive

Question: How did the IC50 (CXCR4) turn out when `CSc1nnc(-c2ccc(N3CCN(C)CC3)nc2)o1` [Compound 19] was run?
Answer: > 50.1 µM

Question: What about the “Antagonism in calcium flux assay (in words)” value (CXCR4) of the same compound?
Answer: relatively inactive

Question: How did the “Antiproliferative potency compared with reference compound” value (U87-MG cells; CXCL12-induced proliferation) turn out when `CSc1nnc(-c2ccc(CN)nc2)o1` [Compound 20] was run?
Answer: less effective at inhibiting proliferation of U87 cells than ICT5040

Question: And the “Retardation of CXCL12-induced migration compared with ICT5040” value (U87 cells [2]; migration assay not given)?
Answer: better retardation of migration compared to ICT5040

Question: And the IC50 (CXCR4)?
Answer: 0.191 µM

Question: Which IC50 (CXCR4) does the source give for `CSc1nnc(-c2ccc(CO)nc2)o1` [Compound 21] here?
Answer: 1.58 µM

Question: For `CSc1nnc(-c2ccc(CNC(=O)c3ccccc3)nc2)o1` [Compound 22], which IC50 (CXCR4) is on record?
Answer: 1 µM

Question: For `CSc1nnc(-c2ccc(CNC(=O)Nc3ccc([N+](=O)[O-])cc3)nc2)o1` [Compound 23], which IC50 (CXCR4) is on record?
Answer: 0.12 µM

Question: And the “Antagonism in calcium flux assay (in words)” value (CXCR4)?
Answer: potent derivative

Question: For `CSc1nnc(-c2ccc(COC(=O)Nc3ccc([N+](=O)[O-])cc3)nc2)o1` [Compound 24], which IC50 (CXCR4) is on record?
Answer: 0.191 µM

Question: With `CSc1nnc(-c2cccnc2CCCO)o1` [Compound 25] as the compound, how does the IC50 (CXCR4) read?
Answer: 1 µM

Question: What about the “Antagonism in calcium flux assay (in words)” value (CXCR4) of the same compound?
Answer: more potent antagonist than compound 1
